Assay results from ChEMBL document CHEMBL1201862, “PubChem BioAssay data set” (2004).
The source made the active and inactive calls.

How the values were obtained:
[1] = target: T1, Endoribonuclease toxin MazF (Escherichia coli K-12, UniProt P0AE70); assay: fluorescent RNA oligo signal without MazF, dose response, counter-screen for MazEF activator project, biochemical, fluorescence, single-stranded RNase substrate (AID 588502); assay type: functional
T1 sequence (P0AE70 whole entry): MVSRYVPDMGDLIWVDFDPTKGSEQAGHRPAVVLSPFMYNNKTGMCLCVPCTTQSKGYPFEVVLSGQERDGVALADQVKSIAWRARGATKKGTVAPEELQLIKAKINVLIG

[2] = target: T1, Endoribonuclease toxin MazF; assay: MazF toxin RNase activators, dose response, biochemical, fluorescence, single-stranded RNA substrate, uHTS hits (AID 588481); assay type: functional
[3] = target: UDP-galactopyranose mutase (Mycobacterium tuberculosis, UniProt P9WIQ1); assay: Inhibitors of Mycobacterium tuberculosis UDP-galactopyranose mutase (UGM) enzyme Measured in Biochemical System Using Plate Reader - 2105-02_Inhibitor_Dose_CherryPick_Activity. [Related pubchem assays (depositor defined):AID504439]
Sequence of UDP-galactopyranose mutase (P9WIQ1 whole entry, the tested form may be a part): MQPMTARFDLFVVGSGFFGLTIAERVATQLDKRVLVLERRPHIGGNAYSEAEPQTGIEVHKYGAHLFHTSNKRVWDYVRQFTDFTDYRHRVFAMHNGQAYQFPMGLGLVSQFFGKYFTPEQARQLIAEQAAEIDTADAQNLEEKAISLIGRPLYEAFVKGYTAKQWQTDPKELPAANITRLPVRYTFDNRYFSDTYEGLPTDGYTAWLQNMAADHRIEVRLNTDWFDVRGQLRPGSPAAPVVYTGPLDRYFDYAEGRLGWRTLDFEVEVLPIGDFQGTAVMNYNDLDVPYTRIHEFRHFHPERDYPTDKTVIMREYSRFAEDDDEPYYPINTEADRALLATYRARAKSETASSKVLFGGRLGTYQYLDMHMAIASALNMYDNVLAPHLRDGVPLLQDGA

[4] = target: T2, RNA-binding protein pos-1 (Caenorhabditis elegans, UniProt G5EF15); assay: inhibitors of POS-1/mex-3 RNA binding, dose response, biochemical, fluorescence polarization (AID 1964);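 note: purified POS-1 fused to maltose binding protein made in E. coli; potency of compounds blocking POS-1 binding to fluorescent RNA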
T2 sequence (G5EF15 whole entry): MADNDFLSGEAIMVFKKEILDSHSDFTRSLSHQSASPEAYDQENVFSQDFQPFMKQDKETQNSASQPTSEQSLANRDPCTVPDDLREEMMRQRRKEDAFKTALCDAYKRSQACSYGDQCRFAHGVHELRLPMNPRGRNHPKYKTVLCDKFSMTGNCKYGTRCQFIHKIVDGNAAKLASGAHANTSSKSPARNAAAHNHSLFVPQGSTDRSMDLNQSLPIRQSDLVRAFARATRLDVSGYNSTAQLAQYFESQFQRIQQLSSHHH

[5] = target: T3, Zinc finger protein mex-5 (Caenorhabditis elegans, UniProt Q9XUB2); assay: MEX-5/TCR-2 RNA interaction inhibitors, dose response, biochemical, C. elegans, fluorescence polarization (AID 1960)
T3 sequence (Q9XUB2 whole entry): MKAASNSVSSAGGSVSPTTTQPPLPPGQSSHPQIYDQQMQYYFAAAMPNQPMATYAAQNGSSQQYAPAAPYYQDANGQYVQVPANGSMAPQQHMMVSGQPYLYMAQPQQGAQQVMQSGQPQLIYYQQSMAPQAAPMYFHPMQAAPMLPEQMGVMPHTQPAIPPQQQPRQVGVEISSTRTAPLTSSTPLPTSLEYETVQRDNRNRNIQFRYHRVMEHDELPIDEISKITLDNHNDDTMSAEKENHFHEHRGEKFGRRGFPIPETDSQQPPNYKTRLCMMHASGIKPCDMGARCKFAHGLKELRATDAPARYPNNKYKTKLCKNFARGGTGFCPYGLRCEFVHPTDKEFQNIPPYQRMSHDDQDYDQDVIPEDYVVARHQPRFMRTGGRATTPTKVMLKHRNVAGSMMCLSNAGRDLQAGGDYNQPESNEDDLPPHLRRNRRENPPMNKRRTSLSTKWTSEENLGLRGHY

Cytochrome P450 3A4 = Cytochrome P450 3A4 (Homo sapiens, UniProt P08684);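 note: CYP3A4 tested as one member of a cytochrome P450 panel screen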
Sequence of Cytochrome P450 3A4 (P08684 whole entry): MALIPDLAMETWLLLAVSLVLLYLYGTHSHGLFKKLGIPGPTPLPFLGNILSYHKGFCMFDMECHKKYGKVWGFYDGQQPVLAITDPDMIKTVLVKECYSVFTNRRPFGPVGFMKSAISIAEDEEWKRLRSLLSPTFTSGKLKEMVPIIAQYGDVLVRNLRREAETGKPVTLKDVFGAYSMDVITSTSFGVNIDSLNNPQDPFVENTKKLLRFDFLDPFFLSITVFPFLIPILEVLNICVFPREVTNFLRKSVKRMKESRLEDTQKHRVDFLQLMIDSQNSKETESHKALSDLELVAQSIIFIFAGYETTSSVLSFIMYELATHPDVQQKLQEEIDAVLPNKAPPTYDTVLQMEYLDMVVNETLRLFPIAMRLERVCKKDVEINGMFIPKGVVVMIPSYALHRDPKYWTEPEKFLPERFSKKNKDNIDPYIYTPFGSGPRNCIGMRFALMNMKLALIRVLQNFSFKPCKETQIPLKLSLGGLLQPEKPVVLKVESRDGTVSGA

Cytochrome P450 2D6 = Cytochrome P450 2D6 (Homo sapiens, UniProt P10635);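 note: CYP2D6 member of a cytochrome P450 panel assay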
Sequence of Cytochrome P450 2D6 (P10635 whole entry): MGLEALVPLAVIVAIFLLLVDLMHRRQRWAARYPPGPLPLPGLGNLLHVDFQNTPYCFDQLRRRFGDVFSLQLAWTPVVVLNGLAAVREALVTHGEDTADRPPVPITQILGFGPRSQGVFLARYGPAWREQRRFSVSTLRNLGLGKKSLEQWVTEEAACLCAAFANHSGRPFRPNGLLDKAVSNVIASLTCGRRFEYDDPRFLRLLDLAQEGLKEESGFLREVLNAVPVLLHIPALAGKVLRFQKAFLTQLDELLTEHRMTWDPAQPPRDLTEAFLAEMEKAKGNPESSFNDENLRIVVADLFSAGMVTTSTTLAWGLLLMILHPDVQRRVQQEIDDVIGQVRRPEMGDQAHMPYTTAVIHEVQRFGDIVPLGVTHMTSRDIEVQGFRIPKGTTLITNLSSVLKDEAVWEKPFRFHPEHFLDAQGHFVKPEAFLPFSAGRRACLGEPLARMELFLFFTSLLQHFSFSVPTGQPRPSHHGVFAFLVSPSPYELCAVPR

Cytochrome P450 1A2 = target: T4, Cytochrome P450 1A2 (Homo sapiens, UniProt P05177);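 note: PubChem cytochrome P450 panel assay, CYP1A2 panel member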
T4 sequence (P05177 whole entry): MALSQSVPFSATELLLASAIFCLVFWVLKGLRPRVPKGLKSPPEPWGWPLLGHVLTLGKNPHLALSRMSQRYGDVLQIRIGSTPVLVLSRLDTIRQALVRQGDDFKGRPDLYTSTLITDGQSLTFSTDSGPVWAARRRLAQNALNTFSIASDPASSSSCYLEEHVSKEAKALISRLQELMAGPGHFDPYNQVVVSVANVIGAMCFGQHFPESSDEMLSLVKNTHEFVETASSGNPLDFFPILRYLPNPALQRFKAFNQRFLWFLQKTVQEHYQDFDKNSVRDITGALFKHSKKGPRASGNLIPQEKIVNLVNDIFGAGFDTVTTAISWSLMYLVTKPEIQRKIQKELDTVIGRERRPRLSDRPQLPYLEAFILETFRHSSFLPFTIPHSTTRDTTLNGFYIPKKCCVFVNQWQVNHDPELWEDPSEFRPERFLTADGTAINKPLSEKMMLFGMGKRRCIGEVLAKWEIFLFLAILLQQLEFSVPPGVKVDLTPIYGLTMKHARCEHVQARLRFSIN

Cytochrome P450 2C19 = Cytochrome P450 2C19 (Homo sapiens, UniProt P33261); assay: Cytochrome panel assay with activity outcomes. Panel member name: p450-cyp2c19 Compounds with AC50 equal or less than 10 uM are considered active; assay type: functional
Sequence of Cytochrome P450 2C19 (P33261 whole entry): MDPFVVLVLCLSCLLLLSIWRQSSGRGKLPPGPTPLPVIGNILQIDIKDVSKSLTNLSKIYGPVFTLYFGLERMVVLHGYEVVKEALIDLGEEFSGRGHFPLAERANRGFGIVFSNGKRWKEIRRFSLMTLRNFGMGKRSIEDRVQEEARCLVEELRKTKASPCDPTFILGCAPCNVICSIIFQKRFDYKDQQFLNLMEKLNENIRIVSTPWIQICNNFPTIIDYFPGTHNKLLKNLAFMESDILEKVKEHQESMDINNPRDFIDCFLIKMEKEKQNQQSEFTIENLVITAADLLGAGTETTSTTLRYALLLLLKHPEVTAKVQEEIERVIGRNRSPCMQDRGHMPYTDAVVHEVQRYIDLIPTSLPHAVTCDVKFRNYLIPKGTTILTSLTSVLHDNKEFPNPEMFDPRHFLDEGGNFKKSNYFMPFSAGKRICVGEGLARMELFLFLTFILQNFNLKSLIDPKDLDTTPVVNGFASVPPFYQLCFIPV

SUMO-activating enzyme [6] = target: T5, SUMO-activating enzyme (Homo sapiens, UniProt Q9UBT2); assay: SUMOylation inhibitor hit validation, confirmation, SUMOylation inhibitor project, biochemical, AlphaScreen (AID 2018); assay type: functional
T5 sequence (Q9UBE0 whole entry): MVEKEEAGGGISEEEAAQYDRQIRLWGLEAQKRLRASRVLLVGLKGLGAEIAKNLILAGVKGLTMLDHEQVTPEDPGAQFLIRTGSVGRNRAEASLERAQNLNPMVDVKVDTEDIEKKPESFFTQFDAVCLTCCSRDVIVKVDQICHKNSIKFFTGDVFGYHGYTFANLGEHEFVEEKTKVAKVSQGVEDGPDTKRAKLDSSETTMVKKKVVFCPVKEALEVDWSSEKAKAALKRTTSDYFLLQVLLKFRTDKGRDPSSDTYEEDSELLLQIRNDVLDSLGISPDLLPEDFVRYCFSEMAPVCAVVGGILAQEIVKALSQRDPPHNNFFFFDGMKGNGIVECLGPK
T5 sequence (Q9UBT2 whole entry): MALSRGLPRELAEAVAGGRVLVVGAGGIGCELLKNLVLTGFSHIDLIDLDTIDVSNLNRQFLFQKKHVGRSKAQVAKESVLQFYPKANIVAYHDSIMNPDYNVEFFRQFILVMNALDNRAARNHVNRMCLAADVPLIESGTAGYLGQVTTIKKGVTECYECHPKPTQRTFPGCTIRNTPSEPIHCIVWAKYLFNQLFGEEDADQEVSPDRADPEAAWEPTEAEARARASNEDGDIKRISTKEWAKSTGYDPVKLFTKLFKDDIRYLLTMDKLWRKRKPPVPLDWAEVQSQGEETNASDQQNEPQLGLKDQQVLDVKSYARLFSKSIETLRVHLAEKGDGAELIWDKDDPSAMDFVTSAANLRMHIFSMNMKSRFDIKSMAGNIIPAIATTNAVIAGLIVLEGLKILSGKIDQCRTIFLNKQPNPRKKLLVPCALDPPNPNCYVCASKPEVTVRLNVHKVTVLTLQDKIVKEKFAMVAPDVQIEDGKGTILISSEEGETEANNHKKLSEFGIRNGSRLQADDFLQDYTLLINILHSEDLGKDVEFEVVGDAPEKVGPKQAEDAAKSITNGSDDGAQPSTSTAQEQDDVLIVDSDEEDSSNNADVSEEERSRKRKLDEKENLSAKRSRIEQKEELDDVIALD

SUMO-activating enzyme [7] = target: T5, SUMO-activating enzyme; assay: inhibitors of in vitro SUMOylation cascade, primary screen, biochemical, HTRF, uHTS (AID 2006); assay type: protein-complex assay
SUMO E1/E2 = SUMO E1/E2 (Homo sapiens, UniProt P63279+Q9UBE0+Q9UBT2); assay: SAR analysis of SUMOylation using HTRF in an in-Vitro dose response assay. [Related pubchem assays (depositor defined):AID2006, AID2011, AID2018, AID2069, AID2658]; assay type: functional
Sequence of SUMO E1/E2 (Q9UBE0 whole entry): as the sequence (Q9UBE0 whole entry) above
Sequence of SUMO E1/E2 (Q9UBT2 whole entry): as the sequence (Q9UBT2 whole entry) above
Sequence of SUMO E1/E2 (P63279 whole entry): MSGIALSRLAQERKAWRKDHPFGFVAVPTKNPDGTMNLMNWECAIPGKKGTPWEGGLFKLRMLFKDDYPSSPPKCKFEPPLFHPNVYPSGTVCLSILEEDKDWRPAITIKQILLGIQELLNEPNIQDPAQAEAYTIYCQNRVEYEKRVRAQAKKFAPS

**Q.** Which results are given for `Cc1ccc(Cl)c2c(N=Nc3ccccc3)c(O)[nH]c12`?
**A.** EC50 [1]: 8.15 µM (active); EC50 [2]: 19.1 µM (active); AC50 [3]: 113 µM (active); EC50 [4]: 18.6 µM (active); EC50 [5]: > 300 µM (inconclusive)

**Q.** Which AC50 (Cytochrome P450 3A4) does the source give for `O=C(c1cccc(F)c1)N1CCC2(CC1)CCN(c1ccccn1)CC2` here?
**A.** inconclusive

**Q.** What about the AC50 (Cytochrome P450 2D6) of the same molecule?
**A.** 20 µM (inconclusive)

**Q.** How did the AC50 (Cytochrome P450 1A2) turn out when `CCOC(=O)[C@H](CCc1ccccc1)N[C@@H](C)C(=O)N1[C@H](C(=O)O)C[C@H]2CCC[C@@H]21` was run?
**A.** inactive

**Q.** What about the AC50 (Cytochrome P450 2C19) of the same molecule?
**A.** inactive

**Q.** `COc1cc(C2c3c(oc4ccccc4c3=O)C(=O)N2c2nccs2)ccc1O` (configuration not stated) was tested. Which IC50 (SUMO-activating enzyme [6]) did it give?
**A.** 12.7 µM (active)

**Q.** And the IC50 (SUMO-activating enzyme [7])?
**A.** 36 µM (active)

**Q.** And the IC50 (SUMO E1/E2)?
**A.** 81.5 µM (active)
